According to ChEMBL document CHEMBL1275474, “In vitro activity of tigecycline against multidrug-resistant Acinetobacter baumannii and selection of tigecycline-amikacin synergy” (2008):
In brackets after ≈: the same amount, converted by molar mass. Activity calls are given as the source filed them. The rule behind the calls is not given here.

Assays:
Acinetobacter baumannii [1] = assay: Antimicrobial activity against Acinetobacter baumannii by microdilution method; type: functional
Acinetobacter baumannii [2] = assay: Antimicrobial activity against Acinetobacter baumannii isolate 1198 by microdilution method; type: functional
Acinetobacter baumannii [3] = assay: Antimicrobial activity against Acinetobacter baumannii isolate 853 by microdilution method; type: functional
Acinetobacter baumannii [4] = assay: Antimicrobial activity against Acinetobacter baumannii assessed as susceptible isolates by microdilution method; type: functional
Acinetobacter baumannii [5] = assay: Antimicrobial activity against Acinetobacter baumannii isolate 1826 by microdilution method; type: functional
Acinetobacter baumannii [6] = assay: Bactericidal activity against Acinetobacter baumannii isolate 1198 at 16 ug/ml after 24 hrs by time kill analysis; type: functional, organism-based
Acinetobacter baumannii [7] = assay: Antimicrobial activity against Acinetobacter baumannii by microdilution method in presence of beta-lactamase inhibitor Sulbactam; type: functional
Acinetobacter baumannii [8] = assay: Antimicrobial activity against Acinetobacter baumannii by microdilution method in presence of beta-lactamase inhibitor Tazobactam; type: functional
Acinetobacter baumannii [9] = assay: Bactericidal activity against Acinetobacter baumannii isolate 1198 at 2 ug/ml after 24 hrs by time kill analysis; type: functional, organism-based
Acinetobacter baumannii [10] = assay: Bactericidal activity against Acinetobacter baumannii isolate 1826 at 8 ug/ml up to 4 hrs by time kill analysis; type: functional, organism-based
Acinetobacter baumannii [11] = assay: Bactericidal activity against Acinetobacter baumannii isolate 1826 at 2 ug/ml up to 4 hrs by time kill analysis; type: functional, organism-based
Acinetobacter baumannii [12] = assay: Bactericidal activity against Acinetobacter baumannii isolate 1826 at 8 ug/ml after 4 hrs by time kill analysis; type: functional, organism-based
Acinetobacter baumannii [13] = assay: Bactericidal activity against Acinetobacter baumannii isolate 1198 at 1 ug/ml after 24 hrs by time kill analysis; type: functional, organism-based
Acinetobacter baumannii [14] = assay: Bactericidal activity against Acinetobacter baumannii isolate 853 at 0.06 ug/ml at 6 hrs by time kill analysis; type: functional, organism-based
Acinetobacter baumannii [15] = assay: Bactericidal activity against Acinetobacter baumannii isolate 1826 at 2 ug/ml after 4 hrs by time kill analysis; type: functional, organism-based
Acinetobacter baumannii [16] = assay: Bactericidal activity against Acinetobacter baumannii isolate 853 at 0.5 ug/ml at 6 hrs by time kill analysis; type: functional, organism-based

| Compound | MIC50 (Acinetobacter baumannii [1]) [µg/mL] | MIC90 (Acinetobacter baumannii [1]) [µg/mL] | MIC (Acinetobacter baumannii [2]) [µg/mL] | MIC (Acinetobacter baumannii [3]) [µg/mL] | Activity (Acinetobacter baumannii [4]) [%] | MIC (Acinetobacter baumannii [5]) [µg/mL] | other results |
| --- | --- | --- | --- | --- | --- | --- | --- |
| NCC[C@H](O)C(=O)N[C@@H]1C[C@H](N)[C@@H](O[C@H]2O[C@H](CN)[C@@H](O)[C@H](O)[C@H]2O)[C@H](O)[C@H]1O[C@H]1O[C@H](CO)[C@@H](O)[C@H](N)[C@H]1O [AMIKACIN] | 8 (≈ 13.7 µM) | > 128 | > 128 | ≤ 0.5 | 53 | 2 (≈ 3.42 µM) | Activity (Acinetobacter baumannii [6]): inactive |
| CC1(C)S[C@@H]2[C@H](NC(=O)[C@H](N)c3ccccc3)C(=O)N2[C@H]1C(=O)O [AMPICILLIN] |  |  |  |  | 31 |  | MIC50 (Acinetobacter baumannii [7]): 16 µg/mL; MIC90 (Acinetobacter baumannii [7]): 128 µg/mL |
| CC(C)(O/N=C(\C(=O)N[C@@H]1C(=O)N2C(C(=O)[O-])=C(C[n+]3ccccc3)CS[C@H]12)c1csc(N)n1)C(=O)O [CEFTAZIDIME] | 64 (≈ 117 µM) | > 64 |  |  | 17 |  |  |
| C[C@@H](O)[C@H]1C(=O)N2C(C(=O)O)=C(SCCNC=N)C[C@H]12 [IMIPENEM ANHYDROUS] | 1 (≈ 3.34 µM) | 16 (≈ 53.4 µM) |  |  | 86 |  |  |
| C[C@H]1COc2c(N3CCN(C)CC3)c(F)cc3c(=O)c(C(=O)O)cn1c23.C[C@H]1COc2c(N3CCN(C)CC3)c(F)cc3c(=O)c(C(=O)O)cn1c23.O [LEVOFLOXACIN] | 8 | 16 |  |  | 35 |  |  |
| CN(C)c1ccc(O)c2c1C[C@H]1C[C@H]3[C@H](N(C)C)C(O)=C(C(N)=O)C(=O)[C@@]3(O)C(O)=C1C2=O [MINOCYCLINE] | 2 (≈ 4.37 µM) | 8 (≈ 17.5 µM) |  |  | 78 |  |  |
| CCN1CCN(C(=O)N[C@@H](C(=O)N[C@@H]2C(=O)N3[C@@H]2SC(C)(C)[C@@H]3C(=O)O)c2ccccc2)C(=O)C1=O [PIPERACILLIN] |  |  |  |  | 9 |  | MIC50 (Acinetobacter baumannii [8]): > 128 µg/mL; MIC90 (Acinetobacter baumannii [8]): > 128 µg/mL |
| CN(C)c1cc(NC(=O)CNC(C)(C)C)c(O)c2c1C[C@H]1C[C@H]3[C@H](N(C)C)C(O)=C(C(N)=O)C(=O)[C@@]3(O)C(O)=C1C2=O [TIGECYCLINE] |  |  | 4 (≈ 6.83 µM) | 0.12 (≈ 0.205 µM) |  | 64 (≈ 109 µM) | Activity (Acinetobacter baumannii [9]): inactive; MIC (Acinetobacter baumannii [1]): 0.06 µg/mL (≈ 0.102 µM); Activity (Acinetobacter baumannii [10]): Active; Activity (Acinetobacter baumannii [11]): Active; Activity (Acinetobacter baumannii [12]): inactive; Activity (Acinetobacter baumannii [13]): inactive; Activity (Acinetobacter baumannii [14]): inactive; Activity (Acinetobacter baumannii [15]): inactive |
| GENTAMICIN | > 32 | > 32 |  |  | 16 |  |  |
| POLYMYXIN B | 1 | 2 | 1 | 1 | 99 | 2 | Activity (Acinetobacter baumannii [16]): inactive |
